In PubChem BioAssay AID1671416:

Molecular target: Proto-oncogene tyrosine-protein kinase Src (Homo sapiens) (UniProt P12931)
Assay: PubChem AID 1671416
Conditions: Z'-LYTE FRET kinase activity, recombinant SRC

Sequence of Proto-oncogene tyrosine-protein kinase Src (Homo sapiens) (P12931 whole entry, looked up): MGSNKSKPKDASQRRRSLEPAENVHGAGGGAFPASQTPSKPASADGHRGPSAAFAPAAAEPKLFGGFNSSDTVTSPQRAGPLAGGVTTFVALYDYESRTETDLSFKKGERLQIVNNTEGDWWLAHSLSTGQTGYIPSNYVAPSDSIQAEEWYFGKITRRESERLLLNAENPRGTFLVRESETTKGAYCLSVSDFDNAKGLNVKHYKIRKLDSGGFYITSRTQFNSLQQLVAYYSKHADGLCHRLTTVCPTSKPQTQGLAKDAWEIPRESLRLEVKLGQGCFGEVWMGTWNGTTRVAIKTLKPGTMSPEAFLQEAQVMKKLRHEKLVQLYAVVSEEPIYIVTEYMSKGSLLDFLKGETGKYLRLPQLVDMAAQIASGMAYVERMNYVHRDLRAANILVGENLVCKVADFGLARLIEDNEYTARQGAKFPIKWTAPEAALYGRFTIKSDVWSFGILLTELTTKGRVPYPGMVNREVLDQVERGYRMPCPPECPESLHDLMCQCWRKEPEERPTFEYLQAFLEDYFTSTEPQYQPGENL

COc1cc2ncnc(Nc3cccc(Cl)c3)c2cc1OC was tested, and the IC50 was 2450 nM.
